In EP0978281B1, “EYEDROPS CONTAINING A LORATIDINE METABOLITE” (Schering-Plough Kabushiki Kaisha, priority 1997, dated 1998):

System: IgE-immunized Rat Peritoneal Mast Cells
Assay: cells
Details: Mast cell, read-out: % inhibition of Histamine Release

`CCOC(=O)N1CCC(=C2c3ccc(Cl)cc3CCc3cccnc32)CC1` [Loratadine, ethyl 4-(8-chloro-5,6-dihydro-11H-benzo[5,6]cyclohepta[1,2-b]pyridin-11-ylidene)-1-piperidinecarboxylate] gave an inhibition at 0.3 µM of 19.8 ± 5.77%, an inhibition at 1 µM of 27.1 ± 4.72% and an inhibition at 3 µM of 45.8 ± 9.26%. The inhibition at 10 µM was 73.3 ± 16.8%.
